{
  "source": "patent US8815590B2",
  "about": "“Composition and method for differentiation of human embryonic stem cells” (Stem Cells for Safer Medicines Limited, priority 2009, dated 2014)",
  "key": {"Human ESCs [SHEF3]": {"test_system": "Human ESCs [SHEF3]", "experiment": "Differentiation towards definitive endoderm: immunostaining and RT-PCR of endodermal markers", "format": "cell-based", "conditions": "2 μM", "procedure": "Human ESCs [SHEF3] were maintained feeder-free on Matrigel® in chemically defined mTeSR1® media and treated with 2 μM 1M for the days indicated. (A) Expression of the endodermal markers FoxA2, Sox17 and HNF4α were analysed by immunofluorescence. Treatment with compound 1M led to expression of all markers after 7 days treatment. Scale bar represents 50 μm. (B) ESCs were harvested on day 7 following treatment with 1M for the indicated days. RNA was extracted and RT-PCR analyses performed using primers selective for the genes indicated. […] (C) BIO induces differentiation towards the DE. SHEF3 ESCs were treated with 2 μM BIO for the times indicated and immunostained with antibodies towards the endodermal markers FOXA2, SOX17 and HNF4α. (D) Compound 1L also induces differentiation towards the DE. SHEF1 ESCs were treated with 2 μM 1L for the times indicated and immunostained with antibodies towards the endodermal markers FOXA2 and HNF4α.\nESCs were cultured feeder-free on Matrigel®-coated plates in mTeSR1® media, supplemented with 2 μM compound 1M for 7 days with the media being refreshed every-other day. Definitive endoderm cultures were passaged with collagenase (1 mg/ml) and plated at a ratio of 1:10 on Matrigel® in KO DMEM supplemented with glutamine, penicillin/streptomycin, NEAA, 2% (v/v) KOSR, 10 ng/ml HGF (Peprotech) and 10 ng/ml FGF4 and cultured for a further 7 days with the media being refreshed every-other day. To allow for maturation of the HLCs, 10 ng/ml oncostatin M (Peprotech) and 10^−7 dexamethasone (SIGMA) were added to the above media and the cells were cultured for an additional 7 days with fresh media every-other day.\nTotal RNA was isolated and purified using TRIzol Reagent (Invitrogen), following the manufacturer's instructions. All RNA samples were treated with DNase I (Ambion) before cDNA synthesis to eliminate any contaminating genomic DNA. RNA (1 μg) was reverse transcribed into cDNA using Oligo(dT)15 (Promega) and SuperScript II (Invitrogen). Gene-specific PCR was carried out using primers and annealing temperatures outlined in Table 2.\nESCs were cultured on Matrigel®-coated lummox (Greiner Bio One) trays and fixed with 4% paraformaldehyde (PFA) for 20 minutes at room temperature. Cells were permeabilised in PBST (with 0.1% Triton X-100) and blocked in 10% blocking reagent (Roche) before incubating with primary antibodies in 2% blocking reagent overnight at 4° C. After washing in PBS, cells were incubated with FITC-conjugated secondary antibodies (Vector Labs) for 3 hours at room temperature. After further washing, the cells were stained with 4,6-diamidino-2-phenylindole (DAPI) (SIGMA), washed again and mounted in MOWIOL. […]"}, "GSK-3": {"test_system": "GSK-3", "experiment": "Phospho-β-catenin immunoblot and TOPFlash luciferase reporter assay in human ESCs", "format": "cell-based", "conditions": "30 min (immunoblot) or 24 hr (TOPFlash)", "procedure": "(A) ESCs [SHEF3] were cultured on MEFs or on Matrigel® in mTeSR1® media and treated with BIO or 1M for 30 min. Protein extracts were prepared and immunoblotting was performed using antibodies detecting the phosphorylated form of […]. The same immunoblot in each case was reprobed for total β-catenin to assess loading. (B) TOPFlash luciferase reporter assay of ESCs [SHEF1] treated for 24 hr with BIO or 1M at the indicated concentrations. Luciferase activity is expressed as a fold increase in activation compared with the normalised TOPFlash luciferase activity in untreated (Con) cells. Data represent the mean+/−SEM of 3 independent experiments.\nCell lysates (20 μg) were prepared, separated by SDS-PAGE and transferred to nitrocellulose as described previously (Welham et al., 1994). […] Images were captured and analysed using the ImageQuant RT ECL system (GE Healthcare). […]\nThe TOPFlash luciferase reporter plasmid (containing four consensus TCF binding sites upstream of the c-fos minimal promoter, driving expression of a firefly luciferase reporter) and its negative control plasmid FOPFlash (containing four mutant TCF binding sites) were provided by Dr C. […] Cell extracts were prepared and firefly and Renilla luciferase activities were determined using the dual-luciferase reporter assay system according to the manufacturer's instructions (Promega). […]"}},
  "data": [
    {"smiles": "O=C1NC(=O)C2=C1c1cn(c3ccccc13)CCOCCOCCOCCOCCn1cc2c2ccccc21", "note": "[1M]", "values": [
      {"measurement": "Differentiation towards the DE (immunostaining FOXA2, SOX17, HNF4α)", "setting": "Human ESCs [SHEF3]; feeder-free on Matrigel in mTeSR1, up to 7 days", "value": "differentiating towards the DE in a time dependent manner"},
      {"measurement": "Expression of HNF4α and AFP (early hepatic lineage)", "setting": "Human ESCs [SHEF3]; following 7 days treatment", "value": "expression of HNF4α and α-fetoprotein (AFP) was observed"},
      {"measurement": "GSK-3-mediated signaling (β-catenin phosphorylation, TOPFlash activity)", "setting": "GSK-3", "value": "inhibits GSK-3-mediated signaling"}
    ]}
  ]
}
